Laboratory results from patent US8686150B2 (Sanofi, priority 2011, dated 2014).

The compounds below were run against T1, human full-length recombinant PKC βII (Homo sapiens, UniProt P05771) (assay: Determination of PKC βII inhibition (Caliper mobility-shift kinase assay, Fluorescein-RFARKGSLRQKNV peptide substrate)). Settings: example compounds at a final concentration of 1.14 μM (±0.15 μM).
T1 construct: Active human full-length recombinant PKC βII; purchased Invitrogen GmbH, Darmstadt, Germany
T1 sequence (P05771 1-673 isoform P05771-2): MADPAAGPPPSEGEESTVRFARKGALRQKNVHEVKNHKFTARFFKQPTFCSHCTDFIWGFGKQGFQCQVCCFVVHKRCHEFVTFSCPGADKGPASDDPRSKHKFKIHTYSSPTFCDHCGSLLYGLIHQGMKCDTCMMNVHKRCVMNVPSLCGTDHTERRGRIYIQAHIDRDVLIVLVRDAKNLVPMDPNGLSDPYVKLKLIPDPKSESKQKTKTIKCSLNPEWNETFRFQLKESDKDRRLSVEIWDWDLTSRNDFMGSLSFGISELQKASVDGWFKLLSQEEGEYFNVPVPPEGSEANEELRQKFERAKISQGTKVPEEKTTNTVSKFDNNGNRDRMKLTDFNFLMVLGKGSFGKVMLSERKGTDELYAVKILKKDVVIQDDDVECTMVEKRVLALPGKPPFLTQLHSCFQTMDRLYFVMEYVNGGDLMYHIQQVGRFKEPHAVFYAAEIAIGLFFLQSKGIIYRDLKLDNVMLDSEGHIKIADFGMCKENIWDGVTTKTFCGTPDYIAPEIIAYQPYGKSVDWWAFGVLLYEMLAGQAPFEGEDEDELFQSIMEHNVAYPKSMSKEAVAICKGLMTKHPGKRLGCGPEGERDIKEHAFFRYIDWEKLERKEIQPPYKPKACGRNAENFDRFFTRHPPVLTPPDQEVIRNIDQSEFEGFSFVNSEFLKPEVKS
Type: biochemical
Summary of the method: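 Compounds were tested at 1.14 μM final. Enzyme was activated by PS, DAG and CaCl2 in Hepes pH 7.4 with MgCl2, with substrate 3 μM and ATP 120 μM as pre-mix concentrations. After 60 min at 32 °C and an EDTA stop, Caliper separation gave fractional turnover, which was normalised to no-compound and no-enzyme controls.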
In the case of Cc1n[nH]c2nc(-c3ccc(O)cc3F)cc(C(=O)N3C[C@@H](C)N(CC4CCNCC4)C[C@@H]3C)c12 [Example 453, ((2S,5R)-2,5-Dimethyl-4-piperidin-4-ylmethyl-piperazin-1-yl)-[6-(2-fluoro-4-hydroxy-phenyl)-3-methyl-1H-pyrazolo[3,4-b]pyridin-4-yl]-methanone], the inhibition at 1.14 µM is reported as 90%.
Cc1n[nH]c2nc(-c3ccc(O)cc3F)cc(C(=O)N3C[C@@H](C)N(CC4CCOCC4)C[C@@H]3C)c12 [Example 454, [(2S,5R)-2,5-Dimethyl-4-(tetra-hydro-pyran-4-yl-methyl)-piperazin-1-yl]-[6-(2-fluoro-4-hydroxy-phenyl)-3-methyl-1H-pyrazolo[3,4-b]pyridin-4-yl]-methanone] was tested, and the inhibition at 1.14 µM was 81%.
Cc1n[nH]c2nc(-c3ccc(O)cc3F)cc(C(=O)N3C[C@@H](C)N(CC4CCOC4)C[C@@H]3C)c12 (stereo partly drawn) [Example 455, [(2S,5R)-2,5-Dimethyl-4-(tetra-hydro-furan-3-ylmethyl)-piperazin-1-yl]-[6-(2-fluoro-4-hydroxy-phenyl)-3-methyl-1H-pyrazolo[3,4-b]pyridin-4-yl]-methanone] gave an inhibition at 1.14 µM of 92%.
Work on Cc1n[nH]c2nc(-c3ccc(O)cc3)cc(C(=O)N3C[C@@H](C)NC[C@@H]3c3ccccc3)c12 [Example 458, [6-(4-Hydroxy-phenyl)-3-methyl-1H-pyrazolo[3,4-b]pyridin-4-yl]-((2S,5R)-5-methyl-2-phenyl-piperazin-1-yl)-methanone] yielded an inhibition at 1.14 µM of 44%.
With Cc1n[nH]c2nc(-c3ccc(O)cc3)cc(C(=O)N3C[C@H](C)NC[C@H]3c3ccccc3)c12 [Example 459, [6-(4-Hydroxy-phenyl)-3-methyl-1H-pyrazolo[3,4-b]pyridin-4-yl]-((2R,5S)-5-methyl-2-phenyl-piperazin-1-yl)-methanone] the inhibition at 1.14 µM was 95%.
